Where “and” joins values, the source holds several entries; their conditions need not be identical. Identical values can stand only once. Entries after “also recorded” stand apart in the source; their conditions may differ.

One experiment deals with Nurr1-LBD. The experiment is described as follows: Nurr1 LBD-dependent luciferase reporter assay in SK-N-BE(2)C cells. The experiment is classed as cell-based. The following applies: GAL4(DBD)-Nurr1(LBD) luciferase reporter. As to the method:
The graph depicts Nurr1-inducing activities by tissue extracts from brain, lung, heart, and kidney. […] The effector plasmid pSVGAL4(DBD)Nurr1(LBD) and the reporter gene for p8XUASL-Luc, together with b-galactosidase expression vector, were transiently transfected into neuroblastoma SK-N-BE(2)C cells. 6 h after transfection, cells were treated with the various tissue extracts for 20 h and the reporter activities were determined by luciferase assay and normalized to the b-galactosidase activity. The basal level of transcriptional activity was normalized to 1. The bars represent means +S.E.M. from three independent experiments.
Graph depicts effects of single or combination treatment with AQ/CQ and prostaglandin (PGE) on Nurr1 activity. As a negative control, human neuroblastoma SK-N-BE(2)C cells transfected with p8XUAS-Luc and pGAL(DBD)Nurr1(LBD) constructs were treated with DMSO alone. As a positive control, cells were treated as described above and harvested 24 h after treatment. An expression vector encoding RSV b-gal was co-transfected to allow normalization for transfection efficiency. Luciferase activity is represented as fold induction after normalization to β-galactosidase compared to cells treated with DMSO alone. Data represent the means ±SEMs of triplicate samples.

Another experiment addresses T1, PPARγ-LBD (Homo sapiens, UniProt P37231).
T1 construct: fold induction of reporter constructs of Nurr1-LBD, PPARa-LBD, and PPARγ-LBD; expressed in transfected cells
T1 sequence (P37231 238-503 limits assumed): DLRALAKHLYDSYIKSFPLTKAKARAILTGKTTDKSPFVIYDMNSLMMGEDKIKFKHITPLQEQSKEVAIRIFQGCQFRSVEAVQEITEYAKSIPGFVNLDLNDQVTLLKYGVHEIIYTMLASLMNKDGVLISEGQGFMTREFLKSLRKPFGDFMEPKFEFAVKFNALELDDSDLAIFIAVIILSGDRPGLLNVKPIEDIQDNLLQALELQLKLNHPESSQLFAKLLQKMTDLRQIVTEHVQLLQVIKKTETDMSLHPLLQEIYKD
The experiment is described as follows: PPARγ-LBD reporter construct transcriptional activation. Type of experiment: cell-based. The text has this: FIG. 13 depicts the fold induction of reporter constructs of Nurr1-LBD, PPARa-LBD, and PPARγ-LBD by different concentrations of PGH1, PGH2, PGJ2, and 15-d-PGJ2. […]

In experiment [1] the test system is LPS-induced immunoactivated mouse bone marrow-derived macrophages. The experiment is described as follows: Pro-inflammatory gene expression in immune-activated mBMMs. Type of experiment: cell-based. Conditions: LPS- or poly(I:C)-induced immune-activated mBMMs, 18 hrs. As to the method:
FIG. 25 show titrations of prostaglandin A1 (PGA1), A2 (PGA2), E1 (PGE1), E2 (PGE2) in LPS-induced immunoactivated mouse bone marrow-derived macrophages. […] The maximal effective concentration was 20 μM or 10 μg/ml.

Experiment [2] relates to H9, human embryonic stem cell (hESC). The experiment is described as follows: Dopaminergic differentiation of H9 hESC (real time PCR). Type of experiment: cell-based. Conditions: for expression level of Lmx1A / expression level of TH: 15 days of differentiation, compared to vehicle group. As to the method:
After 15 days of differentiation procedure including floor plate induction (day1˜day6), neural precursor induction (day 6˜day 12), and dopaminergic precursor induction (day 12˜day 15), cells were harvested for RNA extraction and cDNA preparation. The real time PCR was performed using cDNA and the matching primers for FoxA2, Lmx1A, and TH to determine the level of dopaminergic differentiation.

A further experiment has as its target T2, PPARa-LBD (Homo sapiens, UniProt Q07869).
T2 construct: fold induction of reporter constructs of Nurr1-LBD, PPARa-LBD, and PPARγ-LBD; expressed in transfected cells
T2 sequence (Q07869 239-466 limits assumed): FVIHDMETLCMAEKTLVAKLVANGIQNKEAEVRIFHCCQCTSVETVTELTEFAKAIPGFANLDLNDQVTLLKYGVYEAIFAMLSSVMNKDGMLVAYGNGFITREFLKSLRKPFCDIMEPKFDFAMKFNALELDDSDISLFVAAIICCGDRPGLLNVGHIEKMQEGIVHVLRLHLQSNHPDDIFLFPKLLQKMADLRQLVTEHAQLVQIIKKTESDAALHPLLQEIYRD
Description: PPARa-LBD reporter construct transcriptional activation. Type of experiment: cell-based. From the text:
FIG. 13 depicts the fold induction of reporter constructs of Nurr1-LBD, PPARa-LBD, and PPARγ-LBD by different concentrations of PGH1, PGH2, PGJ2, and 15-d-PGJ2.

In experiment [3] the test system is primary cultured mDA neurons. Description: MPP+ toxicity in primary cultured mDA neurons. Type of experiment: cell-based. Conditions: MPP+ exposure. The text has this: MPP+exposure to mDA neurons decreases the number of TH positive dopaminergic neurons.
Experiment [4] concerns MPTP-induced animal model of PD. The experiment is described as follows: MPTP-induced animal model of PD. The experiment is classed as in vivo, mice. Conditions: for TH density in the striatum / number of TH+ neurons in the SN: MPTP-treated mice, compared to saline-treated control mice; for latency to fall on a rotating rod (rotarod) / time to descent on the pole (pole test): day 6 following MPTP, compared to saline-treated mice. From the text: FIG. 22A depicts a schematic representation of the administration of PGE1 or PGA1 to MPTP-induced animal model of PD. MPTP-treated mice were pre-administrated with PGE1, PGA1 or saline for 3 days before MPTP injection and post-treated for 5 days after MPTP injection.

For the compound `CCCCC[C@H](O)/C=C/[C@H]1[C@H](O)CC(=O)[C@@H]1C/C=C\CCCC(=O)O` [PGE2], in the experiment with Nurr1-LBD, the “transcriptional activity of Nurr1-LBD” value is “specifically and prominently activate the transcription function of Nurr1; also recorded: endogenous activators/agonists of Nurr1 function; also recorded: activate the transcriptional activity of Nurr1 in a dose-dependent manner; also recorded: increase transcriptional activity of Nurr1-LBD in a dose dependent manner”. For the same compound, at PPARγ-LBD, the “transcriptional activity of PPARγ-LBD” value is listed as “failed to induce transcriptional activity of PPARγ-LBD”. For the same compound, in experiment [1], the maximal effective concentration was 20 μM and 10 μg/ml; the “suppression of pro-inflammatory genes TNFα, IL-1β, iNOS and IL-6” value (shortened to “suppression”) is “induced suppression of pro-inflammatory genes including TNFα, IL-1β, iNOS and IL-6 in a dose-dependent manner”.

For `CCCCC[C@H](O)/C=C/C1=C(CCCCCCC(=O)O)C(=O)CC1` [PGB1], the “transcriptional activity of Nurr1-LBD” value with Nurr1-LBD is “increases transcriptional activity of Nurr1-LBD in a dose dependent manner”. Also, the “transcriptional activity of PPARγ-LBD” value at PPARγ-LBD is given as “activate transcriptional function of PPARγ in a dose-dependent manner”. Moreover, in experiment [2], the “expression level of Lmx1A” value was “significantly higher expression level of Lmx1A and TH”; the “expression level of TH” value is “significantly higher expression level of Lmx1A and TH”.

`CCCCC/C=C/C=C1/C(=O)C=C[C@@H]1C/C=C\CCCC(=O)O` [15-d-PGJ2]: in the experiment with Nurr1-LBD, the “transcriptional activity of Nurr1-LBD” value is recorded as “not Nurr1 LBD”. The “transcriptional activity of PPARγ-LBD” value on PPARγ-LBD was “robustly activated PPARs; also recorded: increases transcriptional activity of PPARγ-LBD”. In addition, the “transcriptional activity of PPARalpha LBD” value at PPARa-LBD is “robustly activated PPARs”.

Take `CCCCC[C@H](O)/C=C/[C@H]1C=CC(=O)[C@@H]1CCCCCCC(=O)O` [PGA1, prostaglandin A1]: the “transcriptional activity of Nurr1-LBD” value in the experiment with Nurr1-LBD is “increases transcriptional activity of Nurr1-LBD in a dose dependent manner”. The “MPP+-induced loss of TH-positive mDA neurons” value in experiment [3] is reported as “significantly rescued the MPP+-induced loss of TH-positive mDA neurons”. In addition, in experiment [4], the “TH density in the striatum” value is listed as “retain”, the “number of TH+ neurons in the SN” value is recorded as “retain a significant number”, the “latency to fall on a rotating rod (rotarod)” value was “rescues impaired motor behaviors” and the “time to descent on the pole (pole test)” value is reported as “rescues impaired motor behaviors”. Also, in experiment [2], the “expression level of Lmx1A” value is “significantly higher expression level of Lmx1A and TH”; the “expression level of TH” value was “significantly higher expression level of Lmx1A and TH”. Further, in experiment [1], the maximal effective concentration is 20 μM and 10 μg/ml; the “suppression” value was “induced suppression of pro-inflammatory genes including TNFα, IL-1β, iNOS and IL-6 in a dose-dependent manner”.

Consider `CC/C=C\CC(O)/C=C/C1=C(C/C=C\CCCC(=O)O)C(=O)CC1` (centres unmarked) [PGB3], for which the “transcriptional activity of Nurr1-LBD” value in the experiment on Nurr1-LBD is “increases transcriptional activity of Nurr1-LBD in a dose dependent manner”.

As to `CCCCC[C@H](O)/C=C/C1C2CC(OO2)C1C/C=C\CCCC(=O)O` (some centres unmarked) [PGH2], the “transcriptional activity of Nurr1-LBD” value in the experiment on Nurr1-LBD is reported as “robustly activate the transcriptional activities of Nurr1 LBD; also recorded: increase transcriptional activity of Nurr1-LBD in a dose dependent manner”. Moreover, the “transcriptional activity of PPARγ-LBD” value at PPARγ-LBD is listed as “failed to induce transcriptional activity of PPARγ-LBD”.

Turning to `CCCCC[C@H](O)/C=C/[C@@H]1[C@@H](CCCCCCC(=O)O)[C@@H](O)C[C@H]1O` [PGF2a], in the experiment with Nurr1-LBD, the “transcriptional activity of Nurr1-LBD” value was “activates transcriptional function of Nurr1; also recorded: increases transcriptional activity of Nurr1-LBD in a dose dependent manner”. In addition, the “transcriptional activity of PPARγ-LBD” value on PPARγ-LBD is reported as “failed to induce transcriptional activity of PPARγ-LBD”.

In the case of `CCCCC[C@H](O)/C=C/C1=C(C/C=C\CCCC(=O)O)C(=O)CC1` [PGB2], in the experiment on Nurr1-LBD, the “transcriptional activity of Nurr1-LBD” value is “increases transcriptional activity of Nurr1-LBD in a dose dependent manner”. The “transcriptional activity of PPARγ-LBD” value on PPARγ-LBD is “activate transcriptional function of PPARγ in a dose-dependent manner”.

As to `CCCCC[C@H](O)/C=C/[C@H]1C=CC(=O)[C@@H]1C/C=C\CCCC(=O)O` [PGA2], in the experiment with Nurr1-LBD, the “transcriptional activity of Nurr1-LBD” value was “increases transcriptional activity of Nurr1-LBD in a dose dependent manner”. In experiment [1], the maximal effective concentration is 20 μM and 10 μg/ml; the “suppression” value was “induced suppression of pro-inflammatory genes including TNFα, IL-1β, iNOS and IL-6 in a dose-dependent manner”.

Regarding `CC/C=C\C[C@H](O)/C=C/[C@H]1C=CC(=O)[C@@H]1C/C=C\CCCC(=O)O` [PGA3], the “transcriptional activity of Nurr1-LBD” value in the experiment on Nurr1-LBD is on record as “increases transcriptional activity of Nurr1-LBD in a dose dependent manner”.

As for `CC/C=C\C[C@H](O)/C=C/[C@H]1[C@H](O)CC(=O)[C@@H]1C/C=C\CCCC(=O)O` [PGE3], in the experiment on Nurr1-LBD, the “transcriptional activity of Nurr1-LBD” value is “specifically and prominently activate the transcription function of Nurr1; also recorded: endogenous activators/agonists of Nurr1 function”.

Turning to `CCCCC[C@H](O)/C=C/[C@H]1C(=O)C=C[C@@H]1C/C=C\CCCC(=O)O` [PGJ2], the “transcriptional activity of Nurr1-LBD” value with Nurr1-LBD is “not Nurr1 LBD”. At PPARγ-LBD, the “transcriptional activity of PPARγ-LBD” value was “robustly activated PPARs”. On PPARa-LBD, the “transcriptional activity of PPARalpha LBD” value is given as “robustly activated PPARs”.

Regarding `CCCCC[C@H](O)/C=C/[C@H]1[C@H](O)CC(=O)[C@@H]1CCCCCCC(=O)O` [PGE1], the “transcriptional activity of Nurr1-LBD” value in the experiment on Nurr1-LBD was “specifically and prominently activate the transcription function of Nurr1; also recorded: endogenous activators/agonists of Nurr1 function; also recorded: activate the transcriptional activity of Nurr1 in a dose-dependent manner; also recorded: increase transcriptional activity of Nurr1-LBD in a dose dependent manner”. Further, on PPARγ-LBD, the “transcriptional activity of PPARγ-LBD” value is reported as “failed to induce transcriptional activity of PPARγ-LBD”. Also, the “MPP+-induced loss of TH-positive mDA neurons” value in experiment [3] is recorded as “significantly rescued the MPP+-induced loss of TH-positive mDA neurons”. Moreover, in experiment [4], the “TH density in the striatum” value is reported as “retain”, the “number of TH+ neurons in the SN” value was “retain a significant number”, the “latency to fall on a rotating rod (rotarod)” value was “rescues impaired motor behaviors” and the “time to descent on the pole (pole test)” value is reported as “rescues impaired motor behaviors”. In addition, the “TH expression compared with cAMP” value in experiment [2] (0.01 mM concentration) is “dramatic increase of TH expression in 0.01 mM concentration, which was even stronger than cAMP”. Moreover, in experiment [2], the “expression level of Lmx1A” value was “significantly higher expression level of Lmx1A and TH”; the “expression level of TH” value was “significantly higher expression level of Lmx1A and TH”. Moreover, in experiment [1], the maximal effective concentration is 20 μM and 10 μg/ml; the “suppression” value is “induced suppression of pro-inflammatory genes including TNFα, IL-1β, iNOS and IL-6 in a dose-dependent manner”.

For the compound `CCCCC[C@H](O)/C=C/[C@H]1OC(O)C[C@H](O)[C@@H]1C/C=C\CCCC(=O)O` (some centres unmarked) [TxB2, reference compound], the “transcriptional activity of Nurr1-LBD” value in the experiment with Nurr1-LBD is “does not activate transcriptional function of Nurr1 and PPARγ; also recorded: failed to induce transcriptional activity of Nurr1-LBD”. For the same compound, the “transcriptional activity of PPARγ-LBD” value on PPARγ-LBD is “does not activate transcriptional function of Nurr1 and PPARγ; also recorded: failed to induce transcriptional activity of PPARγ-LBD”.

(Values after US20230190873A1, “METHODS AND COMPOSITIONS RELATED TO THE TREATMENT OF NURR1- AND PPARy-MEDIATED CONDITIONS” (The McLean Hospital Corporation, priority 2017, published 2023).)
